Legend:
MRSA 388 = test: MIC by broth microdilution; format: cell-based, Staphylococcus aureus; settings: MRSA 388, planktonic
Description: (§1) The antibacterial assays were carried out using two Gram-negative (Escherichia coli ATCC 25922, Pseudomonas aeruginosa ATCC 27853) and two Gram-positive (Staphylococcus aureus ATCC 25923, MRSA (meticillin-Resistant S. aureus) 388 (ATCC, American Type Culture Collection) bacteria.
(§2) The antimicrobial activity of the two complexes (1) and (2) was assessed using their minimum inhibitory concentration (MIC) by the broth microdilution method, as previously described by the Clinical and Laboratory Standard Institute (CLSI; M07-A9 document). A broth microdilution assay was performed in sterile 96-well plates using Muller-Hinton broth (Scharlau; MHB). The compounds solubilized in […] (1,000 μg/mL) were serially diluted in 90 μL MHB, in concentrations ranging between 500 and 0.97 μg/mL. Overnight cultures were used to prepare suspension in phosphate-buffered saline (pH 7.0) to match a 0.5 McFarland density. The bacterial suspensions were further diluted to 1:100 by adding 0.1 mL of bacterial suspension to 9.9 mL of MHB. A volume of 10 μL of this dilution was added to each well of columns 1–10, containing different concentrations of the tested compounds. […] Additionally, 10 μL of the diluted bacterial suspension was added in column 11 (the growth control). A volume of 100 μL MHB was added to the microtiter plates’ sterility control wells (column 12). After inoculation, the plates were incubated at 35 ± 2 °C for 18 h. Growth was measured as light absorbance (620 nm) in comparison to an uninoculated well (negative control). It was detected using a microtiter plate reader (Apollo LB 911ELISA (Berthold Technologies GmbH & Co. KG, Waltham, MA, USA)). The MIC of each compound was defined as the lowest concentration required to inhibit bacterial growth.

S. aureus 25923 = test: MIC by broth microdilution; format: cell-based, Staphylococcus aureus; settings: S. aureus 25923, planktonic
Description: as §1, §2

B16 cells [1] = test: Cell morphology by fluorescence microscopy (phalloidin staining), B16 cells; format: cell-based, mouse; settings: 24 h
Description: The morphological changes induced by the treatment of the BJ and B16 cell lines with the tested compounds at two different concentrations (2.5 and 10 µg/mL) applied for 24 h were investigated by fluorescence microscopy.
According to the manufacturer protocol, the cytoskeleton actin filaments of BJ and B16 cells were stained with phalloidin-FITC (Sigma-Aldrich, St. Louis, MO, USA). Briefly, cells were washed with PBS (5 min, 3 times), fixed for 5 min with 3% paraformaldehyde, washed three times with PBS, permeabilized with 0.1% Triton X-100 in PBS for 15 min, washed three times with PBS, stained with 20 μg/mL phalloidin-FITC at room temperature for 1 h and rewashed three times with PBS. The cell nucleus was stained with 8 μM of Hoechst 33342 solution for 10 min, washed three times with PBS, and finally, mounted and sealed on glass slides with FluorSave™ Reagent (Merck Millipore, Germany). The fluorescence images were acquired using an Andor DSD2 Confocal Unit (Andor, Ireland), mounted on an epifluorescence microscope, Olympus BX-51 (Olympus, Germany), equipped with a 40x and 100x objective and an appropriate DAPI/Hoechst filter cube (excitation filter 390/40 […], dichroic mirror 405 nm and emission filter 452/45 nm) and GFP/FITC filter cube (excitation filter 466/40 nm, dichroic mirror 488 nm and emission filter 525/54 nm).

E. coli 25922 = test: Biofilm formation on polystyrene (crystal violet), MBEC; format: cell-based, Escherichia coli; settings: E. coli 25922, biofilm
Description: as §1
The method for assessment of biofilm formation on polystyrene microtiter plates was based on previously published protocols. The absorbance at 490 nm was measured with an Apollo LB 911ELISA (Berthold Technologies GmbH & Co. KG, Waltham, MA, USA) reader. The minimal biofilm-eradication concentration (MBEC) was defined as the lowest concentration of antibiotics required to eradicate the biofilm. All experiments were performed in triplicate.

Saccharomyces cerevisiae = format: cell-based; settings: for sensitivity of sod1Δ and sod2Δ to menadione: 0.1 mM, SC medium; for sensitivity of sod1Δ and sod2Δ to menadione / lysine auxotrophy of sod1Δ cells (growth in SC-Lys medium): 16 h; for lysine auxotrophy of sod1Δ cells (growth in SC-Lys medium): various concentrations; for growth of yeast cells (WT, sod1Δ, sod2Δ): concentrations up to 2 mM
Description: The Saccharomyces cerevisiae laboratory strain BY4741 (MATa; his3Δ1; leu2Δ0; met15Δ0; ura3Δ0) considered wild type (WT), and the isogenic strains sod1Δ and sod2Δ lacking the genes SOD1 (encoding Cu/Zn-superoxide dismutase) and SOD2 (encoding Mn-superoxide dismutase) were obtained from EUROSCARF (Frankfurt, Germany). Cells were maintained, manipulated and grown in a rich medium (YPD, 1% w/v yeast extract, 2% w/v peptone, 2% w/v glucose; 2% w/v agar was added for solid media) or on synthetic complete medium (SC, 0.67% w/v yeast nitrogen base without amino acids, 2% w/v glucose) supplemented with the necessary amino acids. Lysine drop-out medium (SC-Lys) was prepared similarly to SC, omitting lysine from the recipe. We added the complexes to autoclaved media from DMSO sterile stocks (10 mM). An overnight culture was 10^3-fold diluted in fresh medium and incubated (200 rpm, 30 °C) until the culture reached a density of 5 × 10^5 cells. The compounds were added to the desired concentrations, and culture growth was monitored at 660 nm in a 96-well multi-scanner plate reader equipped with a thermostat and shaker (Varioskan, Thermo Fischer Scientific, Vantaa, Finland). Three biological replicates were set for all determinations, and data were presented as average ± standard error (SE). The Saccharomyces cerevisiae laboratory strain BY4741 (MATa; his3Δ1; leu2Δ0; met15Δ0; ura3Δ0) considered wild type (WT), and the isogenic strains sod1Δ and sod2Δ lacking the genes SOD1 (encoding Cu/Zn-superoxide dismutase) and SOD2 (encoding Mn-superoxide dismutase) were purchased from EUROSCARF (Frankfurt, Germany). Cells were maintained and manipulated and grown in YPD medium (1% w/v yeast extract, 2% w/v peptone, 2% w/v glucose; 2% w/v agar was added for solid media). Complexes were added to autoclaved media from DMSO sterile stocks (10 mM). To determine the effect of compounds on yeast growth, a fresh overnight pre-culture was 10^3-fold diluted in YPD and incubated (200 rpm, 30 °C) until the culture reached a density of 5 × 10^5 cells/mL. The compounds were added at the desired concentrations, and cell proliferation was monitored at 660 nm in a 96-well multi-scanner auto reader plate reader equipped with a thermostat and shaker (Varioskan Thermo Fischer Scientific, Vantaa, Finland). All determinations were done on three biological replicates.

B16 cells [2] = test: Lactate dehydrogenase (LDH) release assay, B16 cells; format: cell-based, mouse
Description: Membrane integrity after peptide treatment was assessed based on LDH release using a CytoTox 96 Non-Radioactive Cytotoxicity Assay (Promega), as previously described. […] Maximal LDH release was obtained by complete cell lysis induced by using 1% of Triton X-100. The absorption resulting from LDH activity was measured in a microplate reader Mithras 940 (Berthold) at 490 nm, and the % LDH was calculated as: [(corrected absorbance of the LDH released in treated cells)/(corrected absorbance of the total LDH released)] * 100%.

[3] = 2.5 µg/mL (2.84 μM and 2.76 μM for the complexes)

| Compound | MIC (MRSA 388) [µM] | MIC (S. aureus 25923) [µM] | morphological changes of B16 cells (B16 cells [1]; [3]) | morphological changes of B16 cells (B16 cells [1]; 10 μg/mL (11.05 µM)) | MBEC (E. coli 25922) [mM] | sensitivity of sod1Δ and sod2Δ to menadione (Saccharomyces cerevisiae) | lysine auxotrophy of sod1Δ cells (growth in SC-Lys medium) (Saccharomyces cerevisiae) | growth of yeast cells (WT, sod1Δ, sod2Δ) (Saccharomyces cerevisiae) | LDH release (B16 cells [2]; B16, 24 h) [%] | LDH release (B16 cells [2]; B16, 48 h) [%] | membrane integrity (LDH release) (B16 cells [2]; B16, 24 h and 48 h) |
| --- | --- | --- | --- | --- | --- | --- | --- | --- | --- | --- | --- |
| Cc1cc(C)n2ncnc2n1.Cc1cc(C)n2ncnc2n1.Cc1cc(C)n2ncnc2n1.O.[Cu+2].[O-][Cl+3]([O-])([O-])[O-].[O-][Cl+3]([O-])([O-])[O-].c1cnc2c(c1)ccc1cccnc12 [Complex (2), [Cu(phen)(dmtp)2(OH2)](ClO4)2·dmtp] | 20 | 40 | not altered | significant changes | 0.17 | alleviated the sensitivity of sod1Δ and sod2Δ to menadione | improved the growth of sod1Δ mutants | not affected | 60 | 100 | – |
| Cc1cc(C)n2ncnc2n1.Cc1cc(C)n2ncnc2n1.Cc1cc(C)n2ncnc2n1.O.[Cu+2].[O-][Cl+3]([O-])([O-])[O-].[O-][Cl+3]([O-])([O-])[O-].c1ccc(-c2ccccn2)nc1 [Complex (1), [Cu(bpy)(dmtp)2(OH2)](ClO4)2·dmtp] | 350 | 180 | not altered | – | 0.71 | alleviated the sensitivity of sod1Δ and sod2Δ to menadione | improved the growth of sod1Δ mutants | not affected | – | – | did not affect the membrane integrity |
